Assay results reported in patent US20100099703A1, “PHENYLAMINO-SUBSTITUTED PIPERIDINE COMPOUNDS, THEIR PREPARATION AND USE AS MEDICAMENTS” (priority 2006, published 2010).
pIC50: −log10 of the molar value.

Molecular target: T1, rat Y5 receptor (Rattus norvegicus, UniProt Q63634)
T1 construct: expressed in transfected cells; host or cells: C6 cells (membrane preparation)
T1 sequence (Q63634 1-445): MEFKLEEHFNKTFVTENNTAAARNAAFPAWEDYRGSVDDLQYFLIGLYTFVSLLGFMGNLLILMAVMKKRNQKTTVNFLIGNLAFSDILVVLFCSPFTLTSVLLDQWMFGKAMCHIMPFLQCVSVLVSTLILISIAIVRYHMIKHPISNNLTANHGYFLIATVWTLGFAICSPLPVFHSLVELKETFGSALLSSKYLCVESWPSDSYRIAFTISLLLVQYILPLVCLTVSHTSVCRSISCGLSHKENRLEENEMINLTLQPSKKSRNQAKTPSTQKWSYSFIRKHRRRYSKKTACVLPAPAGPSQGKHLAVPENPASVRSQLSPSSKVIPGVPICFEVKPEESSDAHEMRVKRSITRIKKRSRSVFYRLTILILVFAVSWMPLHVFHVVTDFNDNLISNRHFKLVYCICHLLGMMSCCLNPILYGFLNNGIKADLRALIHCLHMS
Assay: Neuropeptide Y5 receptor binding ([125I]-PYY displacement, membranes of transfected C6 cells)
Details: radioligand [125I]-PYY 100 pM, C6 cells transfected with rat Y5 receptor; for inhibition at 1 µM: compound at 10^−6 M
Experimental: Neuropeptide Y5 Receptor Binding Studies:
The methods used for membrane preparation and binding are similar to those described by Y. Hu, B. T. Bloomquist et al. in Y. Hu, B. T. Bloomquist et al., The Journal of Biological Chemistry, 1996, 271, 26315-26319 with modifications. Said literature description is herewith incorporated by reference and forms part of the disclosure. Cells C6 were transfected with the rat Y5 receptor. The cells were grown under standard culture conditions in 150 cm^2 dishes and they were harvested using a rubber scraper and 10 ml PBS. The cells from five dishes were collected and centrifuged 2.500 g for 5 min (4° C.). The pellet was washed by resuspending in 3 ml buffer (Tris-HCl 10 mM, pH 7.4), homogenized using a Potter S homogenizer, 10 strokes at 600 rpm and centrifuged 48.000 g for 20 min (4° C.). The pellet was resuspended in 8 ml membrane buffer (Tris-HCl 25 mM, NaCl 120 mM, KCl 5 mM, KH2PO4 1.2 mM, CaCl2 2.5 mM, MgSO4 1.2 mM, BSA 0.15 mg/ml, Bacitracine 0.5 mg/ml, pH 7.4) and rehomogenized using the Potter S, 10 strokes at 600 rpm. The protein concentration in the incubation was 40 μg/ml. The radioligand was [^125I]-PYY (100 pM) in a total incubation volume of 200 μl. Following incubation at 25° C. for 2 h, the reaction was stopped by addition of 5 ml ice-cold buffer (Tris-HCl 25 mM, NaCl 120 mM, KCl 5 mM, KH2PO4 1.2 mM, CaCl2 2.5 mM, MgSO4 1.2 mM, pH 7.4) and rapid filtration in a Harvester Brandell Cell using filters (Schleicher & Schuell GF 3362) pretreated for two hours with 0.5% polyethyleneimine. Filters were washed one time with 5 ml ice-cold buffer. The filters were placed into plastic scintilation vials and 5 ml scintilation cocktail Ecoscint H were added. The quantity of radioactivity present was determined in a Wallac Winspectral 1414 counter. Non specific binding was determined in the presence of 1 μM de pNPY. All binding assays were done in triplicate.

Row | inhibition at 1 µM [%] | pIC50 | SMILES
1 | 5.6 |  | O=C(CN1CCC(Nc2ccccc2O)CC1)Nc1cnc2ccccc2c1 [Example 1, 2-[4-(2-Hydroxy-phenylamino)-piperidin-1-yl]-N-quinolin-3-yl-acetamide]
2 | 62.5 |  | O=C(CN1CCC(Nc2ccccc2O)CC1)Nc1ccc(C(=O)c2ccccc2)cc1 [Example 2, N-(4-Benzoyl-phenyl)-2-[4-(2-hydroxy-phenylamino)-piperidin-1-yl]-acetamide]
3 | 97.8 | 7.18 | CCn1c2ccccc2c2cc(NC(=O)CN3CCC(Nc4ccccc4O)CC3)ccc21 [Example 3, N-(9-Ethyl-9H-carbazol-3-yl)-2-[4-(2-hydroxy-phenylamino)-piperidin-1-yl]-acetamide]
4 | 35.3 |  | O=C(CN1CCC(Nc2ccccc2O)CC1)Nc1ccc(C2CCCCC2)cc1 [Example 4, N-(4-Cyclohexyl-phenyl)-2-[4-(2-hydroxy-phenylamino)-piperidin-1-yl]-acetamide]
5 | 22.7 |  | O=C(CN1CCC(Nc2ccccc2O)CC1)Nc1ccc2ncccc2c1 [Example 5, 2-[4-(2-Hydroxy-phenylamino)-piperidin-1-yl]-N-quinolin-6-yl-acetamide]
6 | 95 | 7.24 | O=C(CN1CCC(Nc2ccccc2O)CC1)Nc1ccc2c(c1)-c1ccccc1C2=O [Example 6, 2-[4-(2-Hydroxy-phenylamino)-piperidin-1-yl]-N-(9-oxo-9H-fluoren-3-yl)-acetamide]
7 | 14 |  | CC(=O)c1ccc(NC(=O)CN2CCC(Nc3ccccc3O)CC2)cc1 [Example 7, N-(4-Acetyl-phenyl)-2-[4-(2-hydroxy-phenylamino)-piperidin-1-yl]-acetamide]
8 | 44.7 |  | O=C(CN1CCC(Nc2ccccc2O)CC1)Nc1ccc2c(c1)CCCC2=O [Example 9, 2-[4-(2-Hydroxy-phenylamino)-piperidin-1-yl]-N-(5-oxo-5,6,7,8-tetrahydro-naphthalen-2-yl)-acetamide]
9 | 76.9 | 7.45 | O=C(CN1CCC(Nc2cccc(O)c2)CC1)Nc1ccc2c(c1)-c1ccccc1C2=O [Example 11, 2-[4-(3-Hydroxy-phenylamino)-piperidin-1-yl]-N-(9-oxo-9H-fluoren-3-yl)-acetamide]
10 | 101 |  | O=C(CN1CCC(Nc2ccc(O)cc2)CC1)Nc1ccc2c(c1)-c1ccccc1C2=O [Example 16, 2-[4-(4-Hydroxy-phenylamino)-piperidin-1-yl]-N-(9-oxo-9H-fluoren-3-yl)-acetamide]
11 | 101 | 7.33 | CCn1c2ccccc2c2cc(NC(=O)CN3CCC(Nc4ccccc4OC)CC3)ccc21 [Example 17, N-(9-Ethyl-9H-carbazol-3-yl)-2-[4-(2-methoxy-phenylamino)-piperidin-1-yl]-acetamide]
12 | 96.1 |  | COc1ccccc1NC1CCN(CC(=O)Nc2ccc3c(c2)-c2ccccc2C3=O)CC1 [Example 18, 2-[4-(2-Methoxy-phenylamino)-piperidin-1-yl]-N-(9-oxo-9H-fluoren-3-yl)-acetamide]
13 | 19.6 |  | COc1ccccc1NC1CCN(CC(=O)Nc2cnc3ccccc3c2)CC1 [Example 21, 2-[4-(2-Methoxy-phenylamino)-piperidin-1-yl]-N-quinolin-3-yl-acetamide]
14 | 55.7 |  | COc1ccccc1NC1CCN(CC(=O)Nc2ccc(C(=O)c3ccccc3)cc2)CC1 [Example 22, N-(4-Benzoyl-phenyl)-2-[4-(2-methoxy-phenylamino)-piperidin-1-yl]-acetamide]
15 | 97.5 |  | COc1cccc(NC2CCN(CC(=O)Nc3ccc4c(c3)-c3ccccc3C4=O)CC2)c1 [Example 24, 2-[4-(3-Methoxy-phenylamino)-piperidin-1-yl]-N-(9-oxo-9H-fluoren-3-yl)-acetamide]
16 | 97.3 |  | COc1ccc(NC2CCN(CC(=O)Nc3ccc4c(c3)-c3ccccc3C4=O)CC2)cc1 [Example 28, 2-[4-(4-Methoxy-phenylamino)-piperidin-1-yl]-N-(9-oxo-9H-fluoren-3-yl)-acetamide]
17 | 108 | 6.99 | O=C(CN1CCC(Nc2ccccc2)CC1)Nc1ccc2c(c1)-c1ccccc1C2=O [Example 33, N-(9-Oxo-9H-fluoren-3-yl)-2-(4-phenylamino-piperidin-1-yl)-acetamide]

Continued, compound first:

Row | SMILES | inhibition at 1 µM [%] | pIC50
18 | CCn1c2ccccc2c2cc(NC(=O)CN3CCC(Nc4cccc(O)c4)CC3)ccc21 [Example 10, N-(9-Ethyl-9H-carbazol-3-yl)-2-[4-(3-hydroxy-phenylamino)-piperidin-1-yl]-acetamide] | 105 | 7.46
19 | CCN(CCO)c1ccc(NC(=O)CN2CCC(Nc3cccc(O)c3)CC2)cc1 [Example 12, N-{4-[Ethyl-(2-hydroxy-ethyl)-amino]-phenyl}-2-[4-(3-hydroxy-phenylamino)-piperidin-1-yl]-acetamide] | 51.2 | 
20 | O=C(CN1CCC(Nc2cccc(O)c2)CC1)Nc1ccc2ncccc2c1 [Example 13, 2-[4-(3-Hydroxy-phenylamino)-piperidin-1-yl]-N-quinolin-6-yl-acetamide] | 27.8 | 
21 | CCn1c2ccccc2c2cc(NC(=O)CN3CCC(Nc4ccc(O)cc4)CC3)ccc21 [Example 15, N-(9-Ethyl-9H-carbazol-3-yl)-2-[4-(4-hydroxy-phenylamino)-piperidin-1-yl]-acetamide] | 74.6 | 
22 | CCn1c2ccccc2c2cc(NC(=O)CN3CCC(Nc4cccc(OC)c4)CC3)ccc21 [Example 23, N-(9-Ethyl-9H-carbazol-3-yl)-2-[4-(3-methoxy-phenylamino)-piperidin-1-yl]-acetamide] | 96.9 | 
23 | CCN(CCO)c1ccc(NC(=O)CN2CCC(Nc3cccc(OC)c3)CC2)cc1 [Example 25, N-{4-[Ethyl-(2-hydroxy-ethyl)-amino]-phenyl}-2-[4-(3-methoxy-phenylamino)-piperidin-1-yl]-acetamide] | 51.6 | 
24 | COc1cccc(NC2CCN(CC(=O)Nc3ccc(C(=O)c4ccccc4)cc3)CC2)c1 [Example 26, N-(4-Benzoyl-phenyl)-2-[4-(3-methoxy-phenylamino)-piperidin-1-yl]-acetamide] | 37 | 
25 | CCn1c2ccccc2c2cc(NC(=O)CN3CCC(Nc4ccc(OC)cc4)CC3)ccc21 [Example 27, N-(9-Ethyl-9H-carbazol-3-yl)-2-[4-(4-methoxy-phenylamino)-piperidin-1-yl]-acetamide] | 91.1 | 
26 | CCN(CCO)c1ccc(NC(=O)CN2CCC(Nc3ccc(OC)cc3)CC2)cc1 [Example 29, N-{4-[Ethyl-(2-hydroxy-ethyl)-amino]-phenyl}-2-[4-(4-methoxy-phenylamino)-piperidin-1-yl]-acetamide] | 69 | 
27 | CCn1c2ccccc2c2cc(NC(=O)CN3CCC(Nc4ccccc4)CC3)ccc21 [Example 32, N-(9-Ethyl-9H-carbazol-3-yl)-2-(4-phenylamino-piperidin-1-yl)-acetamide] | 80.7 | 7.63
28 | CCN(CCO)c1ccc(NC(=O)CN2CCC(Nc3ccccc3)CC2)cc1 [Example 34, N-{4-[Ethyl-(2-hydroxy-ethyl)-amino]-phenyl}-2-(4-phenylamino-piperidin-1-yl)-acetamide] | 72.6 | 
29 | O=C(CN1CCC(Nc2ccccc2)CC1)Nc1ccc2c(c1)CCCC2=O [Example 35, N-(5-Oxo-5,6,7,8-tetrahydro-naphthalen-2-yl)-2-(4-phenylamino-piperidin-1-yl)-acetamide] | 67.1 | 
30 | O=C(CN1CCC(N(CC(=O)Nc2ccc3c(c2)-c2ccccc2C3=O)c2ccc(O)cc2)CC1)Nc1ccc2c(c1)-c1ccccc1C2=O [Example 38, 2-(4-{(4-Hydroxy-phenyl)-[(9-oxo-9H-fluoren-3-ylcarbamoyl)-methyl]-amino}-piperidin-1-yl)-N-(9-oxo-9H-fluoren-3-yl)-acetamide] | 45.1 | 
